Results on six molecules are retold here after US20250367267A1, “TREATING AUTOIMMUNE DISEASES WITH INSULIN-LIKE GROWTH FACTOR 1 RECEPTOR LIGAND CONJUGATED TO AN AGENT” (Lirum Therapeutics, Inc., priority 2022, published 2025).

Experiment [1] relates to bulk subpopulations of PBMCs from patients with SLE, RA and SSc. The experiment can be described thus: Effect of LX-101 on bulk PBMC subpopulations (percentage of live cells by flow cytometry). It is filed as cell-based, human. To be noted: 17 μM LX-101, three days. From the text:
Frozen peripheral blood mononuclear cells (PBMCs) were obtained from Discovery Life Sciences from patients diagnosed with lupus, rheumatoid arthritis, and scleroderma. One sample was obtained from a person diagnosed with systemic lupus erythematosus (SLE) undergoing active treatment with methotrexate, Celebrex, prednisone, and Benlysta. A second sample was obtained from a person diagnosed with scleroderma (SSc) before receiving treatment. A third sample was obtained from a person diagnosed with rheumatoid arthritis (RA) undergoing active treatment with Nabumetone. All samples were collected following informed consent.
The PBMCs were thawed, washed, and resuspended in AIM V media with 5% human AB serum (hAB) at a concentration of 1×10^6 cells/mL. PBMCs were seeded in a 24 well plate (1×10^6 cells/well) and treated with a 17 μM of LX-101 or hydrochloric acid (HCl) as a vehicle control. […]
After the three day incubation with LX-101 or the vehicle control, the PBMCs were blocked with human TruStain FcX Fc receptor blocking solution, and stained with an antibody mixture with markers shown in Table 2. […] Data were analyzed with Kaluza software.
The effect of LX-101 was analyzed for both the bulk PBMC and IGF-1R^+ subpopulations. The percentages of live, B cells, CD4^+ T cells, CD8^+ T cells, NK cells, and NKT cells were determined.
In general terms: Flow cytometry measures light scatter and fluorescence of single cells or particles in a stream.

The subject of experiment [2] is IGF-1R+ subpopulations of PBMCs from patients with SLE, RA and SSc. Briefly: Effect of LX-101 on IGF-1R+ PBMC subpopulations (percentage of live IGF-1R+ cells by flow cytometry). To be noted: 17 μM LX-101, three days. It is filed as cell-based, human. From the text:
Frozen peripheral blood mononuclear cells (PBMCs) were obtained from Discovery Life Sciences from patients diagnosed with lupus, rheumatoid arthritis, and scleroderma. One sample was obtained from a person diagnosed with systemic lupus erythematosus (SLE) undergoing active treatment with methotrexate, Celebrex, prednisone, and Benlysta. A second sample was obtained from a person diagnosed with scleroderma (SSc) before receiving treatment. A third sample was obtained from a person diagnosed with rheumatoid arthritis (RA) undergoing active treatment with Nabumetone. All samples were collected following informed consent. The PBMCs were thawed, washed, and resuspended in AIM V media with 5% human AB serum (hAB) at a concentration of 1×10^6 cells/mL. PBMCs were seeded in a 24 well plate (1×10^6 cells/well) and treated with a 17 μM of LX-101 or hydrochloric acid (HCl) as a vehicle control. LX-101 was supplied at a concentration of 4 mM (where the concentration is expressed in terms of the amount of methotrexate in the drug) in 10 mM HC1. The vehicle control groups received the same concentration of HCl as that in the LX-101 solution received by the treatment group. PBMCs were incubated at 37° C. with 5% CO2 for three days. After the three day incubation with LX-101 or the vehicle control, the PBMCs were blocked with human TruStain FcX Fc receptor blocking solution, and stained with an antibody mixture with markers shown in Table 2. Cells were fixed and flow cytometric data were collected for 50,000 live cell events using a BD LSRFortessa X-20 flow cytometer. Data were analyzed with Kaluza software. The effect of LX-101 was analyzed for both the bulk PBMC and IGF-1R^+ subpopulations. The percentages of live, B cells, CD4^+ T cells, CD8^+ T cells, NK cells, and NKT cells were determined.

Experiment [3] concerns CD19+ B cells and CD3+ T cells in the peripheral blood of SLE patients. To be noted: Jacobi et al 2010; cited from earlier work.
The subject of the next experiment is IGFBPs. As to conditions: known in the art (U.S. Pat. No. 4,876,242; Francis et al. 1992); cited from earlier work.
A further experiment deals with IGF-1R (Homo sapiens, UniProt P08069). To be noted: Hakuno et al. 2018; cited from earlier work.
Chain of IGF-1R (P08069 31-736 limits assumed, species assumed): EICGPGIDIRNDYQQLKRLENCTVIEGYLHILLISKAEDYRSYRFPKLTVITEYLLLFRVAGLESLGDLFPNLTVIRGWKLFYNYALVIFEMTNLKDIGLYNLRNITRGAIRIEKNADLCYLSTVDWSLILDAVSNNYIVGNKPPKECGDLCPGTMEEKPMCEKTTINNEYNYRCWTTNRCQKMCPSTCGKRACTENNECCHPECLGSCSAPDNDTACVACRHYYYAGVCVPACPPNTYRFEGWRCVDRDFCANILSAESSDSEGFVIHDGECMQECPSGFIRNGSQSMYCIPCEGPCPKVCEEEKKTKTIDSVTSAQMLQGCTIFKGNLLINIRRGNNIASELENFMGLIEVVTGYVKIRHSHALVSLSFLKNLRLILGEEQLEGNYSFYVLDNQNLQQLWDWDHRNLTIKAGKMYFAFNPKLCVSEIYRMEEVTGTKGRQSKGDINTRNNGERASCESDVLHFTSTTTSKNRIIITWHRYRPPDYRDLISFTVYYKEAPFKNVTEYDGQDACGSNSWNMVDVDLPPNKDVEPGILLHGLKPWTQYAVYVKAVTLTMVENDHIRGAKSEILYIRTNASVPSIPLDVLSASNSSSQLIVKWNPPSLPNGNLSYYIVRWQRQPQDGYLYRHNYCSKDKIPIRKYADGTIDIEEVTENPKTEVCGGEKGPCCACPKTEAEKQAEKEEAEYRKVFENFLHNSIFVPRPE
Chain of IGF-1R (P08069 741-1367 partner limits assumed, species assumed): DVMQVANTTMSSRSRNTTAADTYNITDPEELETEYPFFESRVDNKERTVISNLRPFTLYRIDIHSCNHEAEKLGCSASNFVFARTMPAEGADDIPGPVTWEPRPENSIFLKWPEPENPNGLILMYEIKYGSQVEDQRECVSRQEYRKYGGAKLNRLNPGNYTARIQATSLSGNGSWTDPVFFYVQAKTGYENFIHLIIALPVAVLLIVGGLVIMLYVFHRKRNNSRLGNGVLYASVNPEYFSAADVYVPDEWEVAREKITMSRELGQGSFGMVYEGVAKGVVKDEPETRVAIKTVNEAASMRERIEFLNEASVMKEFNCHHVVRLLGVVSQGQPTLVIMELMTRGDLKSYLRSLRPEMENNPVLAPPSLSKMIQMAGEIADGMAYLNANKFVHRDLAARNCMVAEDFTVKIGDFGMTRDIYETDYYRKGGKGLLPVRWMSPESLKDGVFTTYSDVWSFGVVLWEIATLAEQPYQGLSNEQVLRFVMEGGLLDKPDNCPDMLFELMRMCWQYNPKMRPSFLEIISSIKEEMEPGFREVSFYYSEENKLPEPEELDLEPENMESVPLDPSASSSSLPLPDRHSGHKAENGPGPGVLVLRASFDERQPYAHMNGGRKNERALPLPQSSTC
Setting [4] is: PBMCs from SLE, RA and SSc patients.

Entries after “also recorded” stand apart in the source; their conditions may differ.

With LX-101, in experiment [1], the “off-target effects in IGF-1R− cells” value was “Little off-target effects”; the “percentage of live B cells, CD4+ T cells, CD8+ T cells, NK cells and NKT cells in the bulk PBMC population, vs vehicle control” value is “Little difference”. For the same molecule, in experiment [2] (setting [4]), the “percentage of IGF-1R+CD19+ B cells vs vehicle control” value is “reduced percentages; also recorded: reduction” and the “percentage of live IGF-1R+ cells (all subpopulations) vs vehicle control” value is on record as “marked reductions; also recorded: Reduced percentages”. For the same molecule, in experiment [2] (SLE, RA and SSc samples), the “IGF-1R+CD3+CD8+ T cells vs vehicle control” value is given as “reduction; also recorded: reduced percentages” and the “IGF-1R+CD56+CD3+ natural killer T (NKT) cells vs vehicle control” value was “modest reduction; also recorded: reduced percentages”. In addition, the “IGF-1R+CD3+CD4+ T cells vs vehicle control” value in experiment [2] (SLE, RA and SSc samples, especially RA sample) is on record as “substantial reduction; also recorded: reduced percentages”. In experiment [2] (particularly samples from SLE and RA patients), the “IGF-1R+CD56+CD3− natural killer (NK) cells vs vehicle control” value is on record as “reduction; also recorded: reduced percentages”.
For “Benlysta: a B lymphocyte stimulator (BLyS)-specific inhibitor”, in experiment [3], the “number of CD3+ T cells” value is “not affected” and the “total CD19+ B cells in the peripheral blood” value is reported as “decrease”.
With “des (1-3) IGF-1: lacks the first three amino acids of human IGF-1”, the “binding affinity for IGFBPs compared to wildtype IGF-1” value in the experiment with IGFBPs is listed as “reduced binding affinity”.
Consider “insulin: native ligand to the IGF-1R; two chains connected by disulfide bonds”, for which the “affinity for IGF-1R, fold lower than the IGFs” value with IGF-1R is 50- to 100 fold.
Consider “R3-IGF-1: glutamic acid in position 3 of native human IGF-1 is substituted by arginine”, for which the “binding affinity for IGFBPs compared to wildtype IGF-1” value in the experiment with IGFBPs is given as “reduced binding affinity”.

B1: IGF132: first 17 amino acids of the B chain of insulin replace the first 16 amino acids of human IGF-1 (protein)
chain: FVNQHLCGSHLVEALYLVCGDRGFYFNKPTGYGSSSRRAPQTGIVDECCFRSCDLRRLEMYCAPLKPAKSA
Regarding B1, the “binding affinity for IGFBPs compared to wildtype IGF-1” value in the experiment on IGFBPs was “reduced binding affinity”.
